From patent publication US3969522A, “Diaryl-pyridyl-imidazole methanes for treating mycotic infections” (Bayer Aktiengesellschaft, priority 1972, dated 1976) come the findings set out here.

Type in all cases: cell-based
For assay [1], the system named is Trichophyton mentagrophytes. Nature of the assay: series dilution test in vitro, Trichophyton mentagrophytes. The following applies: Sabourauds' milieu d'epreuve, 28° C, 24 to 96 hours; for MIC: read-out: Minimum Inhibitory Concentration. As to the method:
(§1) A. Determination of the antimycotic action spectrum in vitro by means of the series dilution test
(§2) Sabourauds' milieu d'epreuve is used as the nutrient substrate for dermatophytes and Aspergilli, and meat-broth-glucose-bouillon is used as the nutrient substrate for blastomyces. The incubation temperature is 28° C and the incubation time is 24 to 96 hours.

The test system of the next assay is Candida albicans. Description: series dilution test in vitro, Candida albicans. The following applies: 28° C, 24 to 96 hours; for MIC: read-out: Minimum Inhibitory Concentration. As to the method: as §1, §2
The next assay concerns Penicillium commune. Description: series dilution test in vitro, Penicillium commune. The following applies: 28° C, 24 to 96 hours; for MIC: read-out: Minimum Inhibitory Concentration. As to the method: as §1, §2
A further assay concerns Aspergillis niger. Nature of the assay: series dilution test in vitro, Aspergillus niger. The following applies: Sabourauds' milieu d'epreuve, 28° C, 24 to 96 hours; for MIC: Aspergillus niger, read-out: Minimum Inhibitory Concentration. As to the method:
as §1, §2

The structures appear in SMILES notation. In brackets after ≈: the same amount, converted by molar mass. Where a name gives a salt, the structure may show the parent alone.

Regarding `Cc1ccc(C(c2ccccc2)(c2ccccn2)n2ccnc2)cc1C` (stereo not drawn) [Example 1, 1-(3,4-dimethylphenyl-phenyl-2-pyridyl)-methyl-imidazole], the MIC in assay [1] was 0.5 µg/mL (≈ 1.47 µM); with Candida albicans, 1 µg/mL (≈ 2.95 µM); in the assay with Penicillium commune, 4 µg/mL (≈ 11.8 µM); in the assay on Aspergillis niger, less than 1 µg/mL.

As for `Cc1ccc(C(c2ccccc2)(c2ccncc2)n2ccnc2)cc1C` (stereo not drawn) [Example 10, 1-(3,4-dimethylphenyl-phenyl-4-pyridyl)-methyl-imidazole 1,5-naphthalenedisulphonate], the “Minimum Inhibitory Concentration” value in assay [1] was 10 µg/mL; in the assay on Candida albicans, 1 µg/mL; in the assay on Penicillium commune, 4 µg/mL; in the assay with Aspergillis niger it was 4 µg/mL.

In the case of `FC(F)(F)c1cccc(C(c2ccccc2)(c2ccccn2)n2ccnc2)c1` (stereo not drawn) [Known Compound 2, 1-(3-trifluoromethylphenyl-phenyl-2-pyridyl)-methylimidazole, reference compound], the “Minimum Inhibitory Concentration” value (in assay [1]; in the assay with Penicillium commune; in the assay on Aspergillis niger) was greater than 2 µg/mL throughout. Moreover, the MIC in assay [1] was less than 4 µg/mL; with Candida albicans it was 4 µg/mL (≈ 10.5 µM); in the assay on Penicillium commune, less than 4 µg/mL; in the assay on Aspergillis niger, less than 4 µg/mL.

As to `Cc1ccc(C(c2ccccc2)(c2ccncc2)n2ccnc2)c(C)c1` (stereo not drawn) [Example 4, 1-(2,4-dimethylphenyl-phenyl-4-pyridyl)-methyl-imidazole], the MIC amounted to 0.5 µg/mL (≈ 1.47 µM) in assay [1], 4 µg/mL (≈ 11.8 µM) in the assay with Candida albicans, 10 µg/mL (≈ 29.5 µM) in the assay with Penicillium commune and 4 µg/mL (≈ 11.8 µM) in the assay with Aspergillis niger.

With `Cc1cccc(C)c1C(c1ccccc1)(c1ccccn1)n1ccnc1` (stereo not drawn) [Example 3, 1-(2,6-dimethylphenyl-phenyl-2-pyridyl)-methyl-imidazole hydrochloride], the MIC is 0.5 µg/mL in assay [1], 1 µg/mL in the assay on Candida albicans, 10 µg/mL in the assay with Penicillium commune and 4 µg/mL in the assay on Aspergillis niger.

For `Fc1ccc(C(c2ccccc2)(c2ccccn2)n2ccnc2)cc1` (stereo not drawn) [Known Compound 1, 1-(4-fluorophenyl-phenyl-2-pyridyl)-methylimidazole, reference compound], the “Minimum Inhibitory Concentration” value is greater than 2 µg/mL in assay [1], greater than 2 µg/mL in the assay with Penicillium commune and 2 µg/mL with Aspergillis niger. In addition, the MIC in assay [1] is less than 4 µg/mL; in the assay with Candida albicans, 4 µg/mL (≈ 12.1 µM); in the assay with Penicillium commune, less than 4 µg/mL; in the assay on Aspergillis niger, 4 µg/mL (≈ 12.1 µM).

With `Cc1cccc(C(c2ccccc2)(c2ccccn2)n2ccnc2)c1C` (stereo not drawn) [Example 8, 1-(2,3-dimethylphenyl-phenyl-2-pyridyl)-methyl-imidazole 1,5-naphthalenedisulphonate], the “Minimum Inhibitory Concentration” value was 1 µg/mL in assay [1], 1 µg/mL with Candida albicans, 4 µg/mL with Penicillium commune and 1 µg/mL in the assay on Aspergillis niger.

For `Cc1cccc(C(c2ccccc2)(c2ccncc2)n2ccnc2)c1C` (stereo not drawn) [Example 9, 1-(2,3-dimethylphenyl-phenyl-4-pyridyl)-methyl-imidazole], the MIC in assay [1] is 0.5 µg/mL (≈ 1.47 µM); in the assay with Candida albicans it was 1 µg/mL (≈ 2.95 µM); in the assay with Penicillium commune, 4 µg/mL (≈ 11.8 µM); in the assay with Aspergillis niger, 1 µg/mL (≈ 2.95 µM).

Turning to `Cc1ccc(C(c2ccccc2)(c2ccncc2)n2ccnc2)cc1C` (stereo not drawn) [Example 5, 1-(3,4-dimethylphenyl-phenyl-4-pyridyl)-methyl-imidazole], the figures for the “Minimum Inhibitory Concentration” value (in assay [1]; in the assay on Penicillium commune; in the assay with Aspergillis niger) were 0.5 µg/mL, 10 µg/mL and 1 µg/mL, respectively. Besides, the MIC in the assay on Candida albicans was determined as 1 µg/mL (≈ 2.95 µM).

For `Cc1ccc(C)c(C(c2ccccc2)(c2ccncc2)n2ccnc2)c1` (stereo not drawn) [Example 6, 1-(2,5-dimethylphenyl-phenyl-4-pyridyl)-methyl-imidazole], the MIC in assay [1] is 0.5 µg/mL (≈ 1.47 µM); in the assay on Candida albicans it was 4 µg/mL (≈ 11.8 µM); in the assay with Penicillium commune, 40 µg/mL (≈ 118 µM); with Aspergillis niger, 40 µg/mL (≈ 118 µM).

Consider `Cc1ccc(C(c2ccccc2)(c2ccccn2)n2ccnc2)c(C)c1` (stereo not drawn) [Example 2, 1-(2,4-dimethylphenyl-phenyl-2-pyridyl)-methyl-imidazole], for which the MIC was found to be 0.5 µg/mL (≈ 1.47 µM) in assay [1], 10 µg/mL (≈ 29.5 µM) with Candida albicans, 4 µg/mL (≈ 11.8 µM) with Penicillium commune and 4 µg/mL (≈ 11.8 µM) with Aspergillis niger.

On to `Cc1cccc(C(c2ccccc2)(c2ccccn2)n2ccnc2)c1C` (stereo not drawn) [Example 7, 1-(2,3-dimethylphenyl-phenyl-2-pyridyl)-methyl-imidazole], for which the “Minimum Inhibitory Concentration” value in assay [1] is 0.05 µg/mL; with Penicillium commune, 1 µg/mL; with Aspergillis niger, 0.1 µg/mL. The MIC in the assay on Candida albicans came out at 1 µg/mL (≈ 2.95 µM).
